Data reported in PubChem BioAssay AID2060491 (Molecular Pharmacology Branch, DTP, NCI, 2025).

System: 857933-349-R-J2-PDC complex spheroids, viability
Assay: Anticancer human tumor 857933-349-R-J2-PDC patient-derived colon adenocarcinoma cell line growth inhibition [GQUAD]
Settings: for IC50: curve of first compound; for viability, T/C: stronger effect = lower value
How it was run: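 Viability of tumor cells grown as complex spheroids with endothelial and stromal cells, exposed to drug combinations. Top concentration at or near clinical Cmax (else 10 microM), diluted in half-log increments.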

[1] = second compound 0.0316 µM, first compound 0.0316 µM
[2] = second compound 0.0316 µM, first compound 0.1 µM
[3] = second compound 0.0316 µM, first compound 0.316 µM
[4] = second compound 0.0316 µM, first compound 1 µM
[5] = second compound 0.0316 µM, first compound 3.16 µM
[6] = second compound 0.0316 µM, first compound 10 µM
[7] = second compound 0.1 µM, first compound 0.0316 µM
[8] = second compound 0.1 µM, first compound 0.1 µM
[9] = second compound 0.1 µM, first compound 0.316 µM
[10] = second compound 0.1 µM, first compound 1 µM
[11] = second compound 0.1 µM, first compound 3.16 µM
[12] = second compound 0.1 µM, first compound 10 µM
[13] = second compound 0.316 µM, first compound 0.0316 µM
[14] = second compound 0.316 µM, first compound 0.1 µM
[15] = second compound 0.316 µM, first compound 0.316 µM
[16] = second compound 0.316 µM, first compound 1 µM
[17] = second compound 0.316 µM, first compound 3.16 µM
[18] = second compound 0.316 µM, first compound 10 µM
[19] = second compound 1 µM, first compound 0.0316 µM
[20] = second compound 1 µM, first compound 0.1 µM
[21] = second compound 1 µM, first compound 0.316 µM
[22] = second compound 1 µM, first compound 1 µM
[23] = second compound 1 µM, first compound 3.16 µM
[24] = second compound 1 µM, first compound 10 µM
[25] = second compound 3.16 µM, first compound 0.0316 µM
[26] = second compound 3.16 µM, first compound 0.1 µM
[27] = second compound 3.16 µM, first compound 0.316 µM
[28] = second compound 3.16 µM, first compound 1 µM
[29] = second compound 3.16 µM, first compound 3.16 µM
[30] = second compound 3.16 µM, first compound 10 µM
[31] = second compound 10 µM, first compound 0.0316 µM
[32] = second compound 10 µM, first compound 0.1 µM
[33] = second compound 10 µM, first compound 0.316 µM
[34] = second compound 10 µM, first compound 1 µM
[35] = second compound 10 µM, first compound 3.16 µM
[36] = second compound 10 µM, first compound 10 µM
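Also: spheroids exposed to compounds for one week before readout.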
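For viability, T/C in this document: percent viability relative to vehicle DMSO wells taken as 100%.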

Cc1cccc(N(C)C(=O)C2C(O)CCN2c2nc(C)cc(C(F)(F)F)c2C#N)c1 (stereo unspecified) + CN(C)c1ccc(Nc2c3ccc(NC(=O)CCN4CCCC4)cc3nc3cc(NC(=O)CCN4CCCC4)ccc23)cc1
IC50 (second compound 0.0316 µM): > 10 µM
IC50 (second compound 0.1 µM): > 10 µM
IC50 (second compound 0.316 µM): > 10 µM
IC50 (second compound 1 µM): > 10 µM
IC50 (second compound 3.16 µM): > 10 µM
IC50 (second compound 10 µM): > 10 µM
viability, T/C [1]: 106%
viability, T/C [2]: 106%
viability, T/C [3]: 101%
viability, T/C [4]: 105%
viability, T/C [5]: 103%
viability, T/C [6]: 99.3%
viability, T/C [7]: 101%
viability, T/C [8]: 107%
viability, T/C [9]: 100%
viability, T/C [10]: 102%
viability, T/C [11]: 103%
viability, T/C [12]: 99.2%
viability, T/C [13]: 104%
viability, T/C [14]: 103%
viability, T/C [15]: 98.5%
viability, T/C [16]: 102%
viability, T/C [17]: 108%
viability, T/C [18]: 98%
viability, T/C [19]: 104%
viability, T/C [20]: 90.3%
viability, T/C [21]: 94.3%
viability, T/C [22]: 93.5%
viability, T/C [23]: 96.7%
viability, T/C [24]: 88.2%
viability, T/C [25]: 89.9%
viability, T/C [26]: 78.1%
viability, T/C [27]: 83.8%
viability, T/C [28]: 78.6%
viability, T/C [29]: 87%
viability, T/C [30]: 74.2%
viability, T/C [31]: 68.8%
viability, T/C [32]: 71.7%
viability, T/C [33]: 76.5%
viability, T/C [34]: 74.7%
viability, T/C [35]: 69.8%
viability, T/C [36]: 63.5%

Cn1ncnc1[C@H]1c2n[nH]c(=O)c3cc(F)cc(c23)N[C@@H]1c1ccc(F)cc1 + CN(C)c1ccc(Nc2c3ccc(NC(=O)CCN4CCCC4)cc3nc3cc(NC(=O)CCN4CCCC4)ccc23)cc1
IC50 (second compound 0.0316 µM): > 0.316 µM
IC50 (second compound 0.1 µM): > 0.316 µM
IC50 (second compound 0.316 µM): > 0.316 µM
IC50 (second compound 1 µM): > 0.316 µM
IC50 (second compound 3.16 µM): > 0.316 µM
IC50 (second compound 10 µM): > 0.316 µM
viability, T/C (second compound 0.0316 µM, first compound 0.000999 µM): 108%
viability, T/C (second compound 0.0316 µM, first compound 0.00316 µM): 97.2%
viability, T/C (second compound 0.0316 µM, first compound 0.00999 µM): 99.4%
viability, T/C [1]: 106%
viability, T/C (second compound 0.0316 µM, first compound 0.0999 µM): 109%
viability, T/C [3]: 102%
viability, T/C (second compound 0.1 µM, first compound 0.000999 µM): 102%
viability, T/C (second compound 0.1 µM, first compound 0.00316 µM): 99.9%
viability, T/C (second compound 0.1 µM, first compound 0.00999 µM): 98.6%
viability, T/C [7]: 105%
viability, T/C (second compound 0.1 µM, first compound 0.0999 µM): 104%
viability, T/C [9]: 101%
viability, T/C (second compound 0.316 µM, first compound 0.000999 µM): 106%
viability, T/C (second compound 0.316 µM, first compound 0.00316 µM): 100%
viability, T/C (second compound 0.316 µM, first compound 0.00999 µM): 98.8%
viability, T/C [13]: 97.7%
viability, T/C (second compound 0.316 µM, first compound 0.0999 µM): 105%
viability, T/C [15]: 99.7%
viability, T/C (second compound 1 µM, first compound 0.000999 µM): 102%
viability, T/C (second compound 1 µM, first compound 0.00316 µM): 92%
viability, T/C (second compound 1 µM, first compound 0.00999 µM): 96.4%
viability, T/C [19]: 96%
viability, T/C (second compound 1 µM, first compound 0.0999 µM): 101%
viability, T/C [21]: 94.6%
viability, T/C (second compound 3.16 µM, first compound 0.000999 µM): 90.1%
viability, T/C (second compound 3.16 µM, first compound 0.00316 µM): 81.3%
viability, T/C (second compound 3.16 µM, first compound 0.00999 µM): 84.3%
viability, T/C [25]: 85.8%
viability, T/C (second compound 3.16 µM, first compound 0.0999 µM): 90%
viability, T/C [27]: 86.5%
viability, T/C (second compound 10 µM, first compound 0.000999 µM): 71.2%
viability, T/C (second compound 10 µM, first compound 0.00316 µM): 77%
viability, T/C (second compound 10 µM, first compound 0.00999 µM): 70.8%
viability, T/C [31]: 77.5%
viability, T/C (second compound 10 µM, first compound 0.0999 µM): 75.4%
viability, T/C [33]: 71.7%

O=C(c1cc(Cc2n[nH]c(=O)c3ccccc23)ccc1F)N1CCN(C(=O)C2CC2)CC1 + CN(C)c1ccc(Nc2c3ccc(NC(=O)CCN4CCCC4)cc3nc3cc(NC(=O)CCN4CCCC4)ccc23)cc1
IC50 (second compound 0.0316 µM): > 10 µM
IC50 (second compound 0.1 µM): > 10 µM
IC50 (second compound 0.316 µM): > 10 µM
IC50 (second compound 1 µM): > 10 µM
IC50 (second compound 3.16 µM): > 10 µM
IC50 (second compound 10 µM): > 10 µM
viability, T/C [1]: 111%
viability, T/C [2]: 99.1%
viability, T/C [3]: 108%
viability, T/C [4]: 98.8%
viability, T/C [5]: 106%
viability, T/C [6]: 107%
viability, T/C [7]: 109%
viability, T/C [8]: 104%
viability, T/C [9]: 100%
viability, T/C [10]: 104%
viability, T/C [11]: 99.8%
viability, T/C [12]: 108%
viability, T/C [13]: 103%
viability, T/C [14]: 99.3%
viability, T/C [15]: 103%
viability, T/C [16]: 98.4%
viability, T/C [17]: 109%
viability, T/C [18]: 107%
viability, T/C [19]: 96%
viability, T/C [20]: 95.6%
viability, T/C [21]: 104%
viability, T/C [22]: 93.7%
viability, T/C [23]: 109%
viability, T/C [24]: 98.5%
viability, T/C [25]: 91.2%
viability, T/C [26]: 82%
viability, T/C [27]: 91.2%
viability, T/C [28]: 84%
viability, T/C [29]: 93.4%
viability, T/C [30]: 91.8%
viability, T/C [31]: 73.1%
viability, T/C [32]: 76.3%
viability, T/C [33]: 75.4%
viability, T/C [34]: 73.2%
viability, T/C [35]: 80.5%
viability, T/C [36]: 81.5%
